Measurements as given in US20220241416A1, “METHODS FOR THE IDENTIFICATION OF SARM1 NADASE ACTIVITY INHIBITORS AND USES THEREOF” (Bar Ilan University, priority 2021, published 2022).
“And” between values parts separate entries of the source, which are not always exact repeats. Equal values may be shown once.

Target: T1, hSARM1 (Homo sapiens, UniProt Q6SZW1, E642Q)
T1 construct: short of the N′ terminal mitochondria) localization signal (26ERL . .; 6xHis (N); TEV cleavage site (N); made in house; host or cells: HEK293F suspension cells
T1 sequence (Q6SZW1 with tags, fused parts or gaps E642Q): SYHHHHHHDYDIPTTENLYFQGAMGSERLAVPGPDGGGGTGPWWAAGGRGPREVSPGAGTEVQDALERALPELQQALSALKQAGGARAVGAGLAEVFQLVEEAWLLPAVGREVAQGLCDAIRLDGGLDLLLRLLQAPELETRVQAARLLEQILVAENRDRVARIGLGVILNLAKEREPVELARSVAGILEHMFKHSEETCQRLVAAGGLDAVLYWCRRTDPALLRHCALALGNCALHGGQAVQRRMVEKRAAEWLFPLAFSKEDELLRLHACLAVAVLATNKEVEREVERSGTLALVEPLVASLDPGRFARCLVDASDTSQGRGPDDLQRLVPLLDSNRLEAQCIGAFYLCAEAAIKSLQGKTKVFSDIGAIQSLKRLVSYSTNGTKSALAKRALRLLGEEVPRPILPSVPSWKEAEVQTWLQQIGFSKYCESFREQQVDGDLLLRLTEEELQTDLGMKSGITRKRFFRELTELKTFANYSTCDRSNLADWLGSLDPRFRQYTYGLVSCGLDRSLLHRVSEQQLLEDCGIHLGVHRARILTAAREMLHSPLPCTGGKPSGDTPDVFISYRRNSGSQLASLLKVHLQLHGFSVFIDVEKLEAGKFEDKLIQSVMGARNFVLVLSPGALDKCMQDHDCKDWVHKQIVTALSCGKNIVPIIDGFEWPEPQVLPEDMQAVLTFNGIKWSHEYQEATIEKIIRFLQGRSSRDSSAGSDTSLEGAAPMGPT
Experiment: Cryo-EM 2D classification of hSARM1 conformation
Conditions: for effect on hSARM1 conformation: 2D classification / GraFix
Experimental: FIG. 7B: The structural effects of NAD+ and ATP were observed by cryo-EM based on appearance in 2D classification. Presented are the 10 most populated classes (those with the largest number of particles—numbers in green, 1st class is on the left) out of 50-100 from each data collection after the first round of particle picking and classification. By this analysis, the percentage of particles that present full, two-ring structure is 13% (no NAD+); 74% (5 mM NAD+); and 4% (10 mM ATP).
Cryo-EM grids were prepared by applying 3 μl protein samples to glow-discharged (PELCO easiGlow™ Ted Pella Inc., at 15 mA for 1 minute) holey carbon grids (Quantifoil R 1.2/1.3, Micro Tools GmbH, Germany). The grids were blotted for 4 seconds and vitrified by rapidly plunging into liquid ethane at −182° C. using Leica EM GP plunger (Leica Microsystems, Vienna, Austria). The frozen grids were stored in liquid nitrogen until the day of cryo-EM data collection.
The data presented herein was collected with three separate cryo-electron microscopes: 1) F30 Polara in Ben-Gurion University, Israel was used for all sample preparation optimization. It was also used to collect data sets without and with potential inhibitors (shown in FIG. 1C and the ATP and NMN supplemented classes in FIG. 7B). Samples were imaged under low-dose conditions on a FEI Tecnai F30 Polara microscope (FEI, Eindhoven) operating at 300 kV. Datasets were collected using SerialEM (D. N. Mastronarde, et al. Journal of structural biology 152, 36-51 (2005)) on a K2 Summit direct electron detector fitted behind an energy filter (Gatan Quantum GIF) with a calibrated pixel size of 1.1 Å. The energy filter was set to remove electrons >±10 eV from the zero-loss peak energy. The defocus range was set from −1.0 μm to −2.5 μm. The K2 summit camera was operated in counting mode at a dose rate of 8 electrons/pixel/second on the camera. Each movie was dose fractionated into 50 image frames, with total electron dose of 80ē/Å2. Dose-fractionated image stacks were aligned using MotionCorr2 (X. Li et al., Nature methods 10, 584-590 (2013)), and their defocus values estimated by Gctf (K. Zhang, et al. J Struct Biol 193, 1-12 (2016)). The sum of the aligned frames was used for further processing and the rest of the processing was done in Cryosparc V2 (A. Punjani, J. et al. Nature Methods 14, 290-+(2017)). Particles were auto-picked and subjected to local motion correction to correct for beam-induced drift and then 2D classification with 50 classes. The best (based on shape, number of particles and resolution) classes were manually selected containing 5459 (for hSARM1E642Q) and 43868 (for SAM1-2) particles. 1 initial 3D reference was prepared from all particles and 3D refinement imposing C8 symmetry resulted the final map. […]

SMILES	percentage of particles that present full, two-ring structure (10 mM ATP, 13% without supplement) [%]	effect on hSARM1 conformation	percentage of particles that present full, two-ring structure (5 mM NAD+, 13% or <20% without NAD+)
Nc1ncnc2c1ncn2[C@@H]1O[C@H](COP(=O)(O)OP(=O)(O)OP(=O)(O)O)[C@@H](O)[C@H]1O [ATP]	4	did not affect hSARM1 conformation	–
NC(=O)c1ccc[n+]([C@@H]2O[C@H](COP(=O)([O-])OP(=O)(O)OC[C@H]3O[C@@H](n4cnc5c(N)ncnc54)[C@H](O)[C@@H]3O)[C@@H](O)[C@H]2O)c1 [NAD+, Nicotinamide adenine dinucleotide]	–	–	> 80% and 74%
OCC(O)CO [glycerol]	–	imposes hSARM1 compact conformation	–
